Test results: the NIST ThermoML archive (doi:10.1021/je900550v)

Assay: refractive index (Na D-line) (dimensionless)
Settings: 101.33 kPa, Liquid, Standard Abbe refractometry

C[NH2+]CCO.O=C[O-] [2-hydroxy-N-methylethanaminium formate]
Settings	refractive index
288.35 K	1.4485
293.15 K	1.447
298.35 K	1.4458
303.15 K	1.4446
308.23 K	1.4429
313.1 K	1.4418
318.15 K	1.4406
322.85 K	1.4396

CC(C)C(=O)[O-].C[NH2+]CCO [2-hydroxy-N-methylethanaminium isobutyrate]
Settings	refractive index
288.11 K	1.4539
293.15 K	1.4525
298.05 K	1.4511
303.05 K	1.4496
308.05 K	1.4481
313.05 K	1.4463
318.08 K	1.4448
323.15 K	1.4433

CCCCC(=O)[O-].C[NH2+]CCO [2-hydroxy-N-methylethanaminium pentanoate]
Settings	refractive index
288.15 K	1.4568
293.12 K	1.4554
298.19 K	1.4538
303.15 K	1.4524
308.18 K	1.4508
313.25 K	1.4492
318.15 K	1.4474
323.18 K	1.4461

CCC(=O)[O-].C[NH2+]CCO [2-hydroxy-N-methylethanaminium propionate]
Settings	refractive index
288.15 K	1.4561
293.2 K	1.4548
298.2 K	1.4534
303.15 K	1.452
308.15 K	1.4507
313.18 K	1.4492
318.15 K	1.4478
323.15 K	1.4464

CC(=O)[O-].C[NH2+]CCO [N-methyl-2-hydroxyethylammonium acetate]
Settings	refractive index
288.25 K	1.4518
293.23 K	1.4506
298.15 K	1.4494
303.13 K	1.4483
308.13 K	1.447
313.05 K	1.4457
318.13 K	1.4445
323.1 K	1.4433

CCCC(=O)[O-].C[NH2+]CCO [N-methyl-2-hydroxyethylammonium butanoate]
Settings	refractive index
288.15 K	1.4579
293.15 K	1.4564
298.15 K	1.4549
303.15 K	1.4534
308.15 K	1.452
313.15 K	1.4504
318.15 K	1.4488
323.15 K	1.4471
